Test results published in US9776976B2, “Triazolone compounds and uses thereof” (Inception 2, Inc., priority 2013, dated 2017).
Where two headings read alike, the source gives them in different places.

Assays:
Type in all cases: cell-based
human PPAR γ = target: T1, human PPAR γ (Homo sapiens, UniProt P37231); experiment: Human PPARγ reporter assay (Indigo Biosciences kit)
T1 sequence (P37231 1-505): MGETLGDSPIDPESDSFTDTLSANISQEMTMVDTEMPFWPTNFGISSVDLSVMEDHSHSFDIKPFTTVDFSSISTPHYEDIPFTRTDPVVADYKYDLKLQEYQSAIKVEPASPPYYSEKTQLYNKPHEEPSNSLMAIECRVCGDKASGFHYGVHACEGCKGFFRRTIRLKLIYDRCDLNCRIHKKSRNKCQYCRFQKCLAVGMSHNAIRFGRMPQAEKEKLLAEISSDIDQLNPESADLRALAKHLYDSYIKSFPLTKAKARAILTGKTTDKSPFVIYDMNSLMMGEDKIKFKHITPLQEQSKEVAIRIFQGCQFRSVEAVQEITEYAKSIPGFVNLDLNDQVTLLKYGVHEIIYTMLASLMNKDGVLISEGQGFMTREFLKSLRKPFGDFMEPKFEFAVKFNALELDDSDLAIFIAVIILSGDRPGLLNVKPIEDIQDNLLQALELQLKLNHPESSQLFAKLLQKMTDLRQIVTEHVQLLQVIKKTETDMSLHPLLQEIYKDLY
Experimental: (§1) Target Selectivity Assays
(§2) To determine species selectivity, a Mouse PPARα Reporter Assay System was used (Indigo Biosciences, Cat. #M00111). Activity of test compounds to antagonize or agonize other isoforms of human PPAR, for example β/δ and γ, were assessed using the corresponding kits from Indigo Biosciences (Cat. #IB00121 and #IB00101, respectively). In addition to PPAR activity, compounds were also screened for activity against other nuclear hormone receptors including Estrogen Receptor β, Glucocorticoid Receptor and Thyroid Receptor β using commercially available kits (Indigo Biosciences, Cat. #IB00411, IB00201 and IB01101, respectively). Each assay system from Indigo Biosciences uses technology analogous to the human PPARα kit, with the variance being that the cells used for each assay were engineered to over-express the receptor of interest. In addition, the appropriate receptor agonist (included with each kit) was used at ˜EC80 for assays in which antagonist potency was being assessed.

human PPAR β/δ = target: T2, human PPAR β/δ (Homo sapiens, UniProt Q03181); experiment: Human PPAR β/δ reporter assay (luciferase, Indigo Biosciences kit); conditions: antagonist mode, agonist at ~EC80; read-out: PPARδ Luciferase IC50
T2 construct: host or cells: engineered reporter cells (analogous to the PPARα kit)
T2 sequence (Q03181 1-441): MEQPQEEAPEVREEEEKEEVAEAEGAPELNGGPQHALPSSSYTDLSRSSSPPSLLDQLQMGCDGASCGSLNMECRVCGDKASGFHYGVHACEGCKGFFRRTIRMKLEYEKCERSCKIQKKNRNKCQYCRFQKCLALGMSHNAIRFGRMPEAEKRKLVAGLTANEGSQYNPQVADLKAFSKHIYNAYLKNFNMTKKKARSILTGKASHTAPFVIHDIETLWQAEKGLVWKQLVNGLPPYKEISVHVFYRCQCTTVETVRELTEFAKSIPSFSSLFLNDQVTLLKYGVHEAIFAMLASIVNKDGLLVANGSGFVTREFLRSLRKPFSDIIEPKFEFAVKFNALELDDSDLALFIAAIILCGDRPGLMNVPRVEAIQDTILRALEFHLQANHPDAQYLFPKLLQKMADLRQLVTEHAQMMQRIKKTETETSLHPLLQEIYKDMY
Experimental: as §1, §2

Human PPARα = target: T3, Human PPARα (Homo sapiens, UniProt Q07869); experiment: Human PPARα Reporter Assay (luciferase, Indigo Biosciences); conditions: antagonist mode, reporter cells, overnight incubation
T3 construct: host or cells: proprietary non-human mammalian cells
T3 sequence (Q07869 1-468): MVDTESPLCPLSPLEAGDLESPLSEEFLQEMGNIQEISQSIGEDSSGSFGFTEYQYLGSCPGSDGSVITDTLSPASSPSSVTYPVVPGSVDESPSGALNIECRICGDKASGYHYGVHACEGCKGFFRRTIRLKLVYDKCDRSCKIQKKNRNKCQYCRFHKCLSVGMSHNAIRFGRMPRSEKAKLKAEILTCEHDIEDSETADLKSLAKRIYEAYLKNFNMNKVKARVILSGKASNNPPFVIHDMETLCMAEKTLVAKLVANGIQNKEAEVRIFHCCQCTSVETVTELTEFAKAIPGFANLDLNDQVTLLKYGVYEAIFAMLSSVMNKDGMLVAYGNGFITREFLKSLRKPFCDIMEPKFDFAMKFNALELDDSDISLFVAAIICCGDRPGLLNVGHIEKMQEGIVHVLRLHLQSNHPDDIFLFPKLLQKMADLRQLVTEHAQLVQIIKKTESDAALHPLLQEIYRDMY
Experimental: Human PPARα Reporter Assay The screening of test compounds for agonist or antagonist activities against human PPARα receptors was performed using a commercial kit, Human PPARα Reporter Assay System (Indigo Biosciences, Cat. #IB00111). This nuclear receptor assay system utilizes proprietary non-human mammalian cells engineered to provide constitutive, high-level expression of Human PPARα. Because these cells incorporate a PPARα-responsive luciferase reporter gene, quantifying expressed luciferase activity provides a sensitive surrogate measure of PPARα activity in the treated cells. The primary application of this reporter assay system is in the screening of test samples to quantify any functional activity, either agonist or antagonist, that they may exert against human PPARα. […] Briefly, reporter cells are dispensed into wells of the assay plate and then immediately dosed with test compounds. Following an overnight incubation, the treatment media is discarded and Luciferase Detection Reagent (LDR) is added. The intensity of light emission from the ensuing luciferase reaction provides a sensitive measure that is directly proportional to the relative level of PPARα activation in the reporter cells.

[1] = antagonist mode, agonist at ~EC80, read-out: PPARγ

Row | Structure (SMILES) | IC50 (human PPAR γ; [1]) [µM] | IC50 (human PPAR β/δ) [µM] | IC50 (Human PPARα) [µM] | IC50 (human PPAR γ) [µM]
1 | COc1ccc(-c2ccc(CCCc3nn(-c4ccc(C(F)(F)F)cc4)c(=O)n3Cc3ccccc3F)cc2)cc1CC(=O)O [Example 15, 2-(4′-(3-(4-(2-fluorobenzyl)-5-oxo-1-(4-(trifluoromethyl)phenyl)-4,5-dihydro-1H-1,2,4-triazol-3-yl)propyl)-4-methoxy-[1,1′-biphenyl]-3-yl)acetic acid] | > 100 | 8.36 | 38.8 | 
2 | CCOc1ccc(-c2ccc(CCCc3nn(-c4ccc(OC(F)(F)F)cc4)c(=O)n3C3CCCCC3)cc2)cc1CC(=O)O [Example 8, 2-(4′-(3-(4-cyclohexyl-5-oxo-1-(4-(trifluoromethoxy)phenyl)-4,5-dihydro-1H-1,2,4-triazol-3-yl)propyl)-4-ethoxy-[1,1% biphenyl]-3-yl)acetic acid] | 27.1 | 0.505 | 0.029 | 
3 | CCCOc1ccc(-c2ccc(CCCc3nn(-c4ccc(C(F)(F)F)cc4)c(=O)n3C3CC3)cc2)cc1CC(=O)O [Example 17, 2-(4′-(3-(4-cyclopropyl-5-oxo-1-(4-(trifluoromethyl)phenyl)-4,5-dihydro-1H-1,2,4-triazol-3-yl)propyl)-4-propoxy-[1,1′-biphenyl-]-3-yl)acetic acid] | 30.7 | 0.485 | 0.043 | 
4 | CCOc1ccc(-c2ccc(CCCc3nn(-c4ccc(C(F)(F)F)cc4)c(=O)n3-c3ccccc3OC)cc2)cc1CC(=O)O [Example 26] |  |  |  | 14.9
5 | COc1ccc(-c2ccc(CCCc3nn(-c4ccc(C(F)(F)F)cc4)c(=O)n3C3CC3)cc2)cc1CC(=O)O [Example 14, 2-(4′-(3-(4-cyclopropyl-5-oxo-1-(4-(trifluoromethyl)phenyl)-4,5-dihydro-1H-1,2,4-triazol-3-yl)propyl)-4-methoxy-[1,1′-biphenyl]-3-yl)acetic acid] | 53.1 | 0.697 | 0.108 | 
6 | CCOc1ccc(-c2cccc(CCCc3nn(-c4ccc(C(F)(F)F)cc4)c(=O)n3C(C)C)c2)cc1CC(=O)O [Example 31] | 56.9 | 0.742 | 0.199 | 
7 | CCOc1ccc(-c2ccc(CCCc3nn(-c4ccc(C(F)(F)F)cc4)c(=O)n3C3CCCC(C)C3)cc2)cc1CC(=O)O (stereo not drawn) [Example 6] | 18.1 | 0.154 | 0.135 | 
8 | CCOc1ccc(-c2ccc(CCCc3nn(-c4ccc(C(F)(F)F)cc4)c(=O)n3C3CCC(C)CC3)cc2)cc1CC(=O)O (stereo not drawn) [Example 5] | 40 | 0.125 | 0.109 | 
9 | CCOc1ccc(-c2ccc(CCCc3nn(-c4ccc(C(F)(F)F)cc4)c(=O)n3-c3ccccc3F)cc2C)cc1C(=O)O [Example 11, 4-ethoxy-4′-(3-(4-(2-fluorophenyl)-5-oxo-1-(4-(trifluoromethyl)phenyl)-4,5-dihydro-1H-1,2,4-triazol-3-yl)propyl)-2′-methyl-[1,1% biphenyl-]-3-carboxylic acid] | 24.8 | 0.124 | 0.042 | 

Further lines, with some results ahead:

Row | IC50 (human PPAR γ; [1]) [µM] | IC50 (human PPAR β/δ) [µM] | IC50 (Human PPARα) [µM] | Structure (SMILES) | IC50 (human PPAR γ) [µM]
10 | 32.9 | 0.789 | 0.165 | CCOc1ccc(-c2ccc(CCCc3nn(-c4ccc(C(C)(C)C)cc4)c(=O)n3-c3c(Cl)cccc3Cl)cc2)cc1CC(=O)O [Example 28] | 
11 | 20 | 0.034 | 0.111 | CCCOc1ccc(-c2ccc(CCCc3nn(-c4ccc(C(F)(F)F)cc4)c(=O)n3-c3ccccc3F)cc2)cc1CC(=O)O [Example 39, 2-(4-propoxy-4′-(3-(4-(2-fluorophenyl)-5-oxo-1-(4-(trifluoromethyl)phenyl)-4,5-dihydro-1H-1,2,4-triazol-3-yl)propyl)-[1,1′-biphenyl-]-3-yl)acetic acid] | 
12 | 32.3 | 0.746 | 0.138 | CCOc1ccc(-c2ccc(CCCc3nn(-c4ccc(C(F)(F)F)cc4Cl)c(=O)n3-c3ccccc3F)cc2)cc1CC(=O)O [Example 33, 2-(4-ethoxy-4′-(3-(4-(2-fluorophenyl)-5-oxo-1-(2-chloro-4-(trifluoromethyl)phenyl)-4,5-dihydro-1H-1,2,4-triazol-3-yl)propyl)-[1,1′-biphenyl]-3-yl)acetic acid] | 
13 | 44.5 | 0.061 | 0.088 | CCOc1ccc(-c2ccc(CCCc3nn(-c4ccc(C(F)(F)F)cc4)c(=O)n3-c3cc(F)ccc3F)cc2)cc1CC(=O)O [Example 22] | 
14 | 28.9 | 0.236 | 0.028 | CCOc1ccc(-c2ccc(CCCc3nn(-c4ccc(C(C)C)cc4)c(=O)n3-c3ccccc3Cl)cc2)cc1CC(=O)O [Example 27, 2-(4′-(3-(4-(2-chlorophenyl)-1-(4-isopropylphenyl)-5-oxo-4,5-dihydro-1H-1,2,4-triazol-3-yl)propyl)-4-ethoxy-[1,1′-biphenyl-]-3-yl)acetic acid] | 
15 | 39.8 | 0.312 | 0.25 | CCOc1ccc(-c2ccc(CCCc3nn(-c4ccc(C(F)(F)F)cc4)c(=O)n3-c3ccccc3F)cc2C)cc1CC(=O)O [Example 9, 2-(4-ethoxy-4′-(3-(4-(2-fluorophenyl)-5-oxo-1-(4-(trifluoromethyl)phenyl)-4,5-dihydro-1H-1,2,4-triazol-3-yl)propyl)-2′-methyl-[1,1% biphenyl]-3-yl)acetic acid] | 
16 | 63.2 |  |  | CCOc1ccc(-c2ccc(CCCc3nn(-c4ccc(C(F)(F)F)cc4)c(=O)n3-c3ccccc3F)cc2)cc1C(=O)O [Example 32, 4-ethoxy-4′-(3-(4-(2-fluorophenyl)-5-oxo-1-(4-(trifluoromethyl)phenyl)-4,5-dihydro-1H-1,2,4-triazol-3-yl)propyl)-[1,1′-biphenyl]-3-carboxylic acid] | 
17 | 29 | 0.1 | 0.343 | CCOc1ccc(-c2ccc(CCCc3nn(-c4ccc(C(F)(F)F)cc4)c(=O)n3-c3ccccc3CC)cc2)cc1CC(=O)O [Example 25, 2-(4-ethoxy-4′-(3-(4-(2-ethylphenyl)-5-oxo-1-(4-(trifluoromethyl)phenyl)-4,5-dihydro-1H-1,2,4-triazol-3-yl)propyl)-[1,1′-biphenyl]-3-yl)acetic acid] | 
18 | 79 |  |  | CCOc1ccc(-c2ccc(CCCc3nn(-c4ccccc4F)c(=O)n3-c3ccc(C(F)(F)F)cc3)cc2)cc1CC(=O)O [Example 36, 2-(4-ethoxy-4′-(3-(1-(2-fluorophenyl)-5-oxo-4-(4-(trifluoromethyl)phenyl)-4,5-dihydro-1H-1,2,4-triazol-3-yl)propyl)-[1,1′-biphenyl]-3-yl)acetic acid] | 
